{
  "source": "patent US8377963B2",
  "about": "“Insulin-regulated aminopeptidase (IRAP) inhibitors and uses thereof” (Howard Florey Institute, priority 2007, dated 2013)",
  "key": {"IRAP": {"biological_target": "T1, IRAP (Homo sapiens, UniProt Q9UIQ6)", "T1 construct": "expressed in transfected cells; host or cells: HEK 293T", "T1 sequence (Q9UIQ6 whole entry)": "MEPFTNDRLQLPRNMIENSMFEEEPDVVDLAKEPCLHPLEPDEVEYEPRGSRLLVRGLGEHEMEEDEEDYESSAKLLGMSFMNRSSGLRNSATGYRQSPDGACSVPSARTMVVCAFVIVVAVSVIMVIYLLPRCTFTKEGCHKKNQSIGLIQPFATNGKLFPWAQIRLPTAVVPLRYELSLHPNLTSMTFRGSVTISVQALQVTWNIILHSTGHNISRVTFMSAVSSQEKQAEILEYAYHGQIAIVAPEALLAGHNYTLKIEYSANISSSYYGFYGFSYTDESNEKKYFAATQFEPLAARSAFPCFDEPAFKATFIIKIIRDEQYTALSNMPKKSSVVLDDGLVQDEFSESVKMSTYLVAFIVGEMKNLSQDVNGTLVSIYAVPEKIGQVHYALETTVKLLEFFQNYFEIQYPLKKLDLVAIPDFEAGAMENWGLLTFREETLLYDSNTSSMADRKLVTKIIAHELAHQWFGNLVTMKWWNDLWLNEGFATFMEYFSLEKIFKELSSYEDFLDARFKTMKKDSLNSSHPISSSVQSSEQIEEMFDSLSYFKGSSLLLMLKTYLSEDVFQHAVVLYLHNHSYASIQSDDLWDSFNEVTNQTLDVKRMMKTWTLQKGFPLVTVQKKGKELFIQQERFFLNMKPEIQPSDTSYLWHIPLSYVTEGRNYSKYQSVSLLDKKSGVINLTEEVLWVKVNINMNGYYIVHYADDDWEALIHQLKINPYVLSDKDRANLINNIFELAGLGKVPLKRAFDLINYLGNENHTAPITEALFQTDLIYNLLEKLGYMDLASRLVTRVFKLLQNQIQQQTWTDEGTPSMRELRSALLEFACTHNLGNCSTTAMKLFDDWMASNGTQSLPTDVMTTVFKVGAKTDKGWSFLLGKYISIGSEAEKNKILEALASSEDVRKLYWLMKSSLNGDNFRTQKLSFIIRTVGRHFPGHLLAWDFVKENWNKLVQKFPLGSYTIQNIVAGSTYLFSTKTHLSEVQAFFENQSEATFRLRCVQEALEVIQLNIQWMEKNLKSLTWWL", "assay": "IRAP enzymatic assay (hydrolysis of Leu-MCA)", "assay_type": "biochemical", "conditions": "substrate Leu-MCA, solubilized membranes of HEK 293T cells transfected with IRAP", "description": "An in vitro enzymatic assay was used to initially assess IRAP inhibitory activity.\nAfter solubilization, the membranes were pelleted by centrifugation at 23,100 g for 15 min at 4° C., and the supernatant was reserved as the source of IRAP activity. The enzymatic activities of IRAP were determined by the hydrolysis of the synthetic substrate Leu-MCA (Sigma-Aldrich, Missouri, USA) monitored by the release of a fluorogenic product, MCA, at excitation and emission wavelengths of 380 and 440 nm, respectively. Assays were performed in 96-well plates; each well contains between […] solubilized membrane protein, a range of concentration of substrate in a final volume of 100 μL 50 mM Tris-HCl buffer (pH 7.4). Non-specific hydrolysis of the substrate was corrected by subtracting the emission from incubations with membranes transfected with empty vector. Reactions proceeded at 37° C. for 30 min within a thermostatted FLEX station fluorescence microplate reader (Molecular Devices, Sunnyvale, Calif.). […] Km values of IRAP for Leu-MCA were determined from the kinetic studies. […] All data obtained were from at least three separate experiments performed in duplicate."}, "rats [1]": {"system": "rats", "assay": "Novel object recognition task", "assay_type": "in vivo, rat", "conditions": "for Recognition Index: rats, n=10/group", "description": "(§1) All experiments were performed according to the National Health and Medical Research Council of Australia “Code of practise for the care and use of animals for scientific purposes”. Male Spraque Dawley rats, (250-270 g) are housed individually and given water and standard rat chow ad libitum. On the day of surgery, the rats were anaesthetized with 5% isofluorane, placed in a stereotaxic frame and maintained on 2% isofluorane for the duration of the cannula implantation procedure. The rats were stereotaxically implanted with chronic indwelling cannula (Plastics One) into the cerebral lateral ventricles using the following flat skull coordinates 0.8 mm posterior to Bregma, 1.55 mm lateral to midline and 3.5 mm ventral to the dura. The cannula was then secured to the skull with stainless steel screws and dental cement. Seven days following surgery, proper cannula placement was verified by a bolus injection of angiotensin II (1 nmol/μl).\nThe rats are allowed at least 5 days post-operative recovery prior to use in any behavioural paradigms. On the day of the acquisition trial, the rats were habituated for 5 min in the testing box (made from grey perspex of dimensions 60 cm width×60 cm length×50 cm height) in diffuse dim light and then returned to their home cage. The animals were then rested for at least 2 h and then injected with 1 nmol or 0.1 nmol Compound 2 in 2 μl of 10% dimethyl sulfoxide (DMSO). Control animals received 2 μl of 10% DMSO. Following drug administration, the rats were returned to their home cage for 5 min and then placed in the testing box facing the opposite direction to 2 identical objects that have been secured to the floor in adjacent corners of the box. The rats were allowed 5 min to explore the objects and the definition of explore is that the animal's nose is less than 2 cm from object when it is facing the object. […] The recognition index was determined as the time spent exploring the novel object minus the time spent on the familiar object divided by the time spent on both object."}, "rats [2]": {"system": "rats", "assay": "Spontaneous alternation plus maze", "assay_type": "in vivo, rat", "conditions": "for Spontaneous Alternation Score (%): rats, n=8/group", "description": "as §1\nThe plus maze was composed of four arms with each arm measuring 75×10×20 cm. The floor and walls of the central platform and the floors of the arms were made of black plastic. Spontaneous alternation testing was conducted by placing the rat on the center platform of the maze and allowing 20 min of unimpeded exploration. The number and sequence of arm entries were recorded for calculation of a percent alternation score. An alternation consisted of 4 different arm choices of 5 consecutive arm entries. A ⅘ alternation score was computed by dividing the number of observed alternations in overlapping quintuplets by the number of possible alternations and multiplying the quotient by 100."}, "Recombinant human LTA4H": {"biological_target": "T2, Recombinant human LTA4H (Homo sapiens, UniProt P09960)", "T2 construct": "purchased Cayman Chemicals", "T2 sequence (P09960 1-611)": "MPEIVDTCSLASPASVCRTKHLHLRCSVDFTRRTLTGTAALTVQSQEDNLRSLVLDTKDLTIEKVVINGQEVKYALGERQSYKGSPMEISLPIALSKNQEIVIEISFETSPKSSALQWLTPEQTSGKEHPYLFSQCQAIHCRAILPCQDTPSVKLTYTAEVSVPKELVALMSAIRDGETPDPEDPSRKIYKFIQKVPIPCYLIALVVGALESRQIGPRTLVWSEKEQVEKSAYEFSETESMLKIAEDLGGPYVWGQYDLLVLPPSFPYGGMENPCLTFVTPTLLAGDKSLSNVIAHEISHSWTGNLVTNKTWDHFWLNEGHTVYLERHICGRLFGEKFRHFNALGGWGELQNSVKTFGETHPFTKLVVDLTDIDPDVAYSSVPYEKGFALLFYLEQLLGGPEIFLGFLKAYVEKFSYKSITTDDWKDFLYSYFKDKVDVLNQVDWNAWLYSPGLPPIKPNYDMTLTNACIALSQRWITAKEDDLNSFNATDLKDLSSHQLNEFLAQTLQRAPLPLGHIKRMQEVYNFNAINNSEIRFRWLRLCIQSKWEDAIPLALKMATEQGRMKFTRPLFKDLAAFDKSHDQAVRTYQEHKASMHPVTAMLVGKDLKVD", "assay": "Leukotriene A4 hydrolase assay", "assay_type": "biochemical", "conditions": "100 μM; read-out: % inhibition of the catalytic activity of the enzyme", "description": "Leukotriene A4 hydrolase assay. Recombinant human LTA4H (Cayman Chemicals Michigan USA) (1-20 μg) was incubated at room temperature with alanine-p-nitroanilide as substrate in 50 mM Tris-HCl buffer, pH 8.0, containing 100 mM KCl with or without increasing concentrations of an inhibitor. The absorbance at 405 nm was measured at 10 min intervals.\nLimited inhibition of control enzymes was observed."}, "rats [3]": {"system": "rats", "assay": "Elevated plus maze (stress or anxiety)", "assay_type": "in vivo, rat", "conditions": "for Time spent in the open arm (% control): rats, n=8 per group", "description": "as §1\nThe elevated plus maze was used to investigate the potential effect of IRAP inhibitors on stress or anxiety. The elevated plus maze consists of two open arms (70×10 cm) with a 5 cm high surrounding wall and two enclosed arms (70×10 cm) with a 27 cm high surrounding wall. The floor of the open and closed arms are white laminate, the open arm walls are clear perspex, and the closed arms walls dark grey perspex. The maze is elevated 85 cm above the ground in the centre of a room that is lit by overhead lights generating 1241 ux. […] The time spent in the closed arms compared to the open arms was a measure of the anxiety status of the animals."}, "[4]": {"conditions": "0.1 nmol intracerebroventricularly"}, "[5]": {"conditions": "1 nmol intracerebroventricularly"}},
  "data": [
    {"smiles": "CCOC(=O)C1=C(NC(C)=O)Oc2cc(O)ccc2C1c1cccnc1", "note": "(stereo not drawn) [Compound 2, Ethyl 2-(acetylamino)-7-hydroxy-4-pyridin-3-yl-4H-chromene-3-carboxylate]", "values": [
      {"measurement": "IC50", "setting": "IRAP", "value": 790, "unit": "nM"},
      {"measurement": "Ki", "setting": "IRAP; calculated from IC50=Ki(1+[S]/Km), read-out: K1", "value": 480, "unit": "nM"},
      {"measurement": "Recognition Index", "setting": "rats [1]; [4]", "value": "35.82 ± 7.30"},
      {"measurement": "Recognition Index", "setting": "rats [1]; [5]", "value": "45.09 ± 9.97"},
      {"measurement": "recognition of a novel object compared to vehicle treated control rats", "setting": "rats [1]; 1 and 0.1 nmole intracerebroventricularly, after 24 h, p<0.05", "value": "better recognition of a novel object"},
      {"measurement": "Spontaneous Alternation Score (%)", "setting": "rats [2]; [4]", "value": "73.70 ± 3.14", "unit": "%"},
      {"measurement": "spontaneous alternation scores compared to vehicle treated control rats", "setting": "rats [2]; 0.1 nmole, p<0.01", "value": "significantly enhanced spontaneous alternation scores"},
      {"measurement": "Spontaneous Alternation Score (%)", "setting": "rats [2]; [5]", "value": "64.34 ± 2.49", "unit": "%"},
      {"measurement": "inhibition at 100 µM", "setting": "Recombinant human LTA4H", "value": 0, "unit": "%"},
      {"measurement": "Time spent in the open arm (% control)", "setting": "rats [3]; [4]", "value": "121.62 ± 28.26", "unit": "% control"},
      {"measurement": "Time spent in the open arm (% control)", "setting": "rats [3]; [5]", "value": "127.88 ± 19.18", "unit": "% control"},
      {"measurement": "stress compared to vehicle, by time spent in the open arm of the elevated plus maze", "setting": "rats [3]; 0.1 and 1 nmol intracerebroventricularly", "value": "not significantly more or less stressed"}
    ]}
  ]
}
